A word on the MIC: it is the lowest concentration found to suppress growth. Low readings indicate greater potency, high ones weaker potency.

Test systems include Escherichia coli ML-35p; Listeria ivanovii; Saccharomyces cerevisiae; Bacillus megaterium; Escherichia coli UB1005.
Holding throughout (assay): ≥ marks a high value that may be exact or a test limit, other limits are often not marked, values filed in µg/mL are converted to µM
The subject of assay [1] is Staphylococcus aureus ST1065.
Assay [2] concerns Pseudomonas aeruginosa ATCC 27853.
Assay [3] relates to Staphylococcus aureus ATCC 25923.
Assay [4] has as its system Candida albicans ATCC 90028.
Assay [5] deals with Staphylococcus aureus ATCC 43300.
Assay [6] concerns Escherichia coli ATCC 25922.
Assay [7] concerns Staphylococcus aureus ATCC BAA-44.
Assay [8] relates to Klebsiella pneumoniae ATCC 13883.
The subject of assay [9] is Enterococcus faecalis ATCC 29212.
Assay [10] deals with Escherichia coli ATCC 35218.
For assay [11], the system named is Salmonella enterica subsp. enterica serovar Enteritidis.
Assay [12] has as its system Acinetobacter baumannii ATCC 19606.
In assay [13] the test system is Candida parapsilosis ATCC 22019.
For assay [14], the system named is Streptococcus mutans ATCC 25175.
Assay [15] has as its system Staphylococcus aureus ATCC 12600.
The subject of assay [16] is Pseudomonas aeruginosa ATCC 9027.
Assay [17] concerns Staphylococcus aureus 1550.
Assay [18] relates to Micrococcus luteus ATCC 9341.
Assay [19] has as its system Staphylococcus aureus ATCC 6538.
Assay [20] concerns Escherichia coli ATCC 2592.
Assay [21] relates to Bacillus subtilis CMCC 63501.
The subject of assay [22] is Staphylococcus epidermidis ATCC 12228.
The test system of assay [23] is Staphylococcus aureus ATCC 29213.
In assay [24] the test system is Salmonella enterica subsp. enterica serovar Typhimurium ATCC 14028.
Assay [25] concerns Salmonella typhimurium ATCC 7731.
The subject of assay [26] is Escherichia coli NBRC 3972.
The test system of assay [27] is Micrococcus luteus NBRC 3333.
For assay [28], the system named is Pseudomonas putida NBRC 100650.
Assay [29] relates to Candida viswanathii NBRC 10321.
Assay [30] concerns Staphylococcus epidermidis NBRC 12993.
Assay [31] concerns Aspergillus oryzae NBRC 100959.
Assay [32] concerns Lacticaseibacillus rhamnosus 1.0925.
Assay [33] has as its system Lacticaseibacillus rhamnosus 7469.
Assay [34] relates to Lactiplantibacillus plantarum 8014.
For assay [35], the system named is Lacticaseibacillus rhamnosus 1.0911.
Assay [36] relates to Lacticaseibacillus rhamnosus 1.0386.
The test system of assay [37] is Lacticaseibacillus rhamnosus 1.0385.

Values after ≈ are worked out from the molar mass of the structure shown. Where only a bound is given, the exact number is not on record here.

With `CC[C@H](C)[C@H](NC(=O)CNC(=O)[C@H](C)NC(=O)[C@H](CC(C)C)NC(=O)[C@H](C)NC(=O)[C@@H]1CCCN1C(=O)[C@H](CC(C)C)NC(=O)[C@@H](N)Cc1ccccc1)C(=O)N[C@@H](C)C(=O)NCC(=O)N[C@@H](CC(C)C)C(=O)N[C@@H](CC(C)C)C(=O)NCC(=O)N[C@@H](CCCCN)C(=O)N[C@H](C(=O)N[C@@H](Cc1ccccc1)C(N)=O)[C@@H](C)CC` [FLPALAGIAGLLGKIF], the MIC in assay [1] is 3.12 µM (≈ 4.99 µg/mL); in [2] it was 60 µM (≈ 96 µg/mL); in assay [3] it was 3.12 µM (≈ 4.99 µg/mL); against Escherichia coli ML-35p, no less than 50 µM; with Listeria ivanovii, 5 µM (≈ 8 µg/mL); in assay [4], no less than 100 µM. The MIC in assay [5] is 3.1 µM (≈ 4.96 µg/mL); in the assay on Saccharomyces cerevisiae it was 12.5 µM (≈ 20 µg/mL); in [6] it was 25 µM (≈ 40 µg/mL); in the assay on Bacillus megaterium it was 1.56 µM (≈ 2.5 µg/mL); in assay [7] it was 3.12 µM (≈ 4.99 µg/mL); in assay [8], no less than 100 µM. The MIC in [9] is 12.5 µM (≈ 20 µg/mL); in assay [10], no less than 50 µM; in [11] it was no less than 100 µM; in assay [12] it was 25 µM (≈ 40 µg/mL); in [13], no less than 50 µM.
Turning to `CC[C@H](C)[C@H](NC(=O)[C@H](C)NC(=O)CNC(=O)[C@H](Cc1ccccc1)NC(=O)[C@H](CC(C)C)NC(=O)CN)C(=O)N[C@@H](C)C(=O)NCC(=O)N[C@@H](Cc1ccccc1)C(=O)N[C@H](C(=O)N[C@@H](CCCCN)C(=O)N[C@@H](CCCCN)C(=O)NCC(=O)N[C@@H](Cc1c[nH]c2ccccc12)C(=O)N1CCC[C@H]1C(=O)NCC(=O)N[C@@H](CC(C)C)C(=O)N[C@H](C(=O)N[C@@H](CCCCN)C(=O)NCC(N)=O)C(C)C)[C@@H](C)CC` [GLFGAIAGFIKKGWPGLVKG], the MIC in assay [2] is 15.5 µM (≈ 31.2 µg/mL); in assay [14] it was 1.9 µM (≈ 3.83 µg/mL); in [6], 7.8 µM (≈ 15.7 µg/mL); in assay [15], 3.9 µM (≈ 7.86 µg/mL).
Take `CC(C)[C@H](NC(=O)[C@H](CCCCN)NC(=O)[C@H](Cc1ccccc1)NC(=O)[C@@H](NC(=O)[C@@H](NC(=O)[C@H](CCCCN)NC(=O)[C@@H](N)CCCCN)C(C)C)C(C)C)C(=O)N[C@@H](CCCCN)C(=O)N[C@@H](Cc1ccccc1)C(=O)N[C@@H](CCCCN)C(=O)O` [KKVVFKVKFK]: the MIC in [16] was determined as 4 µM (≈ 5 µg/mL); in assay [17], 17.6 µM (≈ 22 µg/mL); in assay [18], 3.2 µM (≈ 4 µg/mL); in assay [19], 2.49 µM (≈ 3.12 µg/mL); in assay [20] it was 8 µM (≈ 10 µg/mL).
Regarding `CC[C@H](C)[C@H](NC(=O)[C@H](C)NC(=O)[C@H](CCCCN)NC(=O)[C@H](Cc1ccc(O)cc1)NC(=O)[C@@H](N)CC(C)C)C(=O)N[C@@H](CCCN=C(N)N)C(=O)N[C@@H](CCCN=C(N)N)C(=O)N[C@@H](CCCCN)C(N)=O` [LYKAIRRK], the MIC in assay [21] is no less than 128 µM; with Escherichia coli UB1005, no less than 128 µM; in assay [22], greater than 128 µM; in assay [2], greater than 128 µM; in assay [23] it was greater than 128 µM; in assay [24], greater than 128 µM. In addition, the MIC in assay [6] was greater than 128 µM; in [25], no less than 128 µM.
As to `CC[C@H](C)[C@H](NC(=O)[C@H](CCSC)NC(=O)[C@H](CCCN=C(N)N)NC(=O)[C@H](CCCN=C(N)N)NC(=O)[C@H](CC(C)C)NC(=O)[C@H](Cc1ccc(O)cc1)NC(=O)[C@H](CCCN=C(N)N)NC(=O)[C@H](CCCCN)NC(=O)[C@@H](NC(=O)[C@H](CCCCN)NC(=O)[C@@H](N)CCCN=C(N)N)[C@@H](C)CC)C(=O)O` [RKIKRYLRRMI], the MIC in assay [26] was 4.08 µM (≈ 6.25 µg/mL); in [27], 2.04 µM (≈ 3.13 µg/mL); in assay [28] it was 8.15 µM (≈ 12.5 µg/mL); in assay [29], 8.15 µM (≈ 12.5 µg/mL); in [30] it was 4.08 µM (≈ 6.25 µg/mL); in [31], 16.3 µM (≈ 25 µg/mL).
In the case of `NC(=O)[C@H](CCCN=C(N)N)NC(=O)[C@H](CCCN=C(N)N)NC(=O)[C@H](Cc1c[nH]c2ccccc12)NC(=O)[C@H](Cc1ccc(O)cc1)NC(=O)[C@H](Cc1c[nH]c2ccccc12)NC(=O)[C@H](Cc1c[nH]c2ccccc12)NC(=O)[C@H](Cc1c[nH]c2ccccc12)NC(=O)[C@H](Cc1ccc(O)cc1)NC(=O)[C@H](Cc1c[nH]c2ccccc12)NC(=O)[C@H](CCCN=C(N)N)NC(=O)[C@@H](N)CCCN=C(N)N` [RRWYWWWYWRR], the MIC in the assay with Escherichia coli UB1005 was no less than 32 µM; in assay [32] it was no less than 64 µM; in assay [22], 8 µM (≈ 15.2 µg/mL); in assay [2], 8 µM (≈ 15.2 µg/mL); in assay [33], no less than 64 µM; in [23], 8 µM (≈ 15.2 µg/mL). Moreover, the MIC is 4 µM (≈ 7.6 µg/mL) in [34]; no less than 64 µM in assay [35]; 16 µM (≈ 30.4 µg/mL) in [36]; 8 µM (≈ 15.2 µg/mL) in assay [5]; 16 µM (≈ 30.4 µg/mL) in assay [37]; 32 µM (≈ 60.8 µg/mL) in assay [6].

For the origin of these results see DBAASP.
